This note sets out measurements from patent US20110294843A1, “ADMINISTRATION SCHEME OF POLAR OPIOID METABOLITES FOR POST-OPERATIVE PAIN MANAGEMENT” (PAION UK Limited, priority 2008, published 2011).

Data set [1] can be described thus: Partition coefficient (logP) between aqueous buffer and octanol. As to conditions: phosphate/n-octanol. The text has this: As stated above, the opioid metabolites according to the invention are polar metabolites. As understood hereinafter the term “polar” means a higher polarity as compared to the unpolar moφhine. The polar nature of a compound can be determined by measuring its partition coefficient between an aqueous buffer and an organic solvent such as octanol. […] This depends on the specific system.

In data set [2] the test system is patients with pain treatment after surgery. Briefly: Meta analysis of four clinical studies with M6G pain treatment after surgery. The text has this: The four studies M6G001, M6G012, M6G015 and M6G022 are described in the following.
The following variables were included in the meta analysis:
Nausea (none, mild, moderate, severe)
Sedation (none, mild, moderate, severe)
Pain (none, mild, moderate, severe)

Data set [3] has as its system patients following hip-replacement surgery. As to the kind of experiment: M6G012 study: acute pain following hip-replacement surgery under general anaesthetic. As to conditions: 30 mg/70 kg at skin closure, four hour post-operative period. It counts as in vivo, human.
The subject of data set [4] is patients following major abdominal surgery. As to the kind of experiment: M6G022 study: analgesic efficacy and tolerability of M6G and morphine following major abdominal surgery. Here is the method:
Pain relief, nausea and emesis were recorded for 24 to 48 hours after start of the patient controlled analgesia.
The study site personnel (with the exception of the pharmacy); representatives of the sponsoring company; and the organisation involved in monitoring, data management, or other aspects of the study were blinded to the study treatment. The use of midazolam, temazepam, zopiclone or other short-acting pre-operative anxiolytics was allowed. All patients received a standardised general anaesthetic consisting of propofol induction, with either isoflurane or sevoflurane maintenance. These inhalational agents are associated with a similar risk of PONV. Nitrous oxide was not allowed because of its emetic effects, and the risk of an imbalance in its use. An initial bolus of 1-3 μg/kg of fentanyl or 0.1-0.3 μg/kg of sufentanyl followed by further doses as required, was used for pre- and peri-operative analgesia. Post-operative analgesia was provided by the study drug.
The investigator could administer up to 5 ml of PCA study drug, on no more than two occasions in each 24 hour post-operative period, as rescue medication if the patient was in uncontrolled pain. […] The patients stayed on PCA for a minimum of 24 hours following surgery, but could continue up to 48 hours if clinically indicated.
No prophylactic antiemetic was given, although iv ondansetron (4 mg/2 ml) was available if the patient experienced severe nausea, or immediately following emesis. If this was ineffective further doses of ondansetron; or other agents such as cyclizine, prochlorperazine or perphenazine; were allowed.
Pain intensity at rest was assessed by the patients using the VRS-11 scale at baseline, 15, 30 and 45 minutes and 1, 2, 4, 6, 9, 12, 15, 18, 21 and 24 hours after the start of PCA. A numerical scale was chosen because of the practical difficulty for post-operative patients of completing a visual analogue scale. If the patient remained on PCA after 24 hours, the pain scores were recorded every 8 hours up to 48 hours. In addition, at the end of the study the patients and observers were asked to assess the acceptability of their pain relief over the entire study using a 5 point rating global scale ranging from very poor (1) to excellent (5). […] The total consumption of study drugs was calculated.
Emesis risk factors of female gender; history of motion sickness or PONV; or smoking status were recorded at screening. Post-operative nausea was assessed by the patient using a 4 point ordinal scale (none, mild, moderate, severe) and occurrence of vomiting or dry retching recorded (yes/no; and if yes, the number of episodes) pre-operatively (Day −1), at baseline, and at 1, 2, 4, 6, 9, 12, 15, 18, 21, 24, 32, 40 and 48 hours after administration of the test analgesic. Nausea and vomiting were also combined in a single scoring system (postoperative nausea & vomiting, PONV), with an episode of vomiting or dry retching being scored as a 3 (severe) on the nausea scale.
Sedation was assessed using a combination of a binary question (sleepy, yes or no) and a 3 point ordinal scale (mild, moderate, severe) if the patient was sedated. All adverse events were recorded, along with concomitant medication use, with particular attention being paid to the use of anti-emetics.
The Intention to Treat (ITT) set of patients comprised all those who had been exposed to study medication at least once. This analysis set was the basis for the main efficacy and all safety and demographic analyses. Data were double entered using interactive verification into a CLINTRIAL database (Version 3.3.3, Phase Forward, Waltham, Mass., USA), and analysed using SAS (version 8.2, SAS Institute Inc., Cary, N.C., USA).

As usually defined, the logP is a log measure of how a compound divides between an organic and an aqueous phase. `CN1CC[C@]23c4c5ccc(O)c4O[C@H]2[C@@H](OC2OC(C(=O)O)C(O)C(O)C2O)C=CC3[C@H]1C5` (stereo partly drawn) [M6G, (5α,6α)-7,8-Didehydro-4,5-epoxy-3-hydroxy-17-methylmorphinan-β-yl-β-D-glucopyranosiduronic acid]: the logP in data set [1] was -2.4. In addition, the “patients with moderate to severe sedation” value in data set [2] (human, in vivo, intravenous) worked out at 63.5%. The “patients with moderate to severe pain” value in data set [2] (time window 0 to 6 hours) is 50.5%; in data set [2] (time window 6-24 hours), 19.1%. Besides, in data set [2] (worst assessment), the “patients with moderate to severe nausea” value amounted to 23.9%. In addition, the patients with vomiting in data set [2] (worst assessment) was determined as 26.0%. Moreover, the “pain (VAS) compared with 10 mg/70 kg morphine at skin closure” value in data set [3] is “non-inferior”. Also, the “reduction of AUC for vomiting and dry retching in favour of M6G” value in data set [4] (0-24 hours) stood at 32.3%; in data set [4] (6-24 hours), 34.2%. In addition, the “mean totals of PCA demands” value in data set [4] (4-48 h) came to 53.1; in data set [4] (early post-operative period (up to 4 hours)), 33.5. Also, the “Reduction of PONV AUC, M6G vs morphine” value in data set [4] (AUC 0-6 h) was 27.0%; in data set [4] (AUC 0-12 h), 26.3%; in data set [4] (AUC 0-24 h), 24.3%; in data set [4] (AUC 6-24 h), 28.5%; in data set [4] (AUC 12-24 h), 24.5%; in data set [4] (AUC 24-48 h), 10.3%. The “patients with sedation score recorded as severe” value in data set [4] (baseline) is 20.9%. Also, in data set [4] (baseline (when given control of the PCA button)), the patients sedated stood at 75.7%. For the same compound, in data set [4] (initial 24 hours post-operatively), the “magnitude of reduction of PONV” value is reported as 24-29%. The “dose required to achieve comfort initially” value in data set [4] (loading and recovery doses before PCA) was determined as 45.0 mg/70 kg. For the same compound, in data set [4] (over the 24 hours, VRS-11), the “difference between the adjusted means of pain intensity AUCs for M6G and morphine” value is reported as “+3.318”. For the same compound, the “pain intensity compared with morphine” value in data set [4] (whole 24 hour period) is recorded as “non-inferior to morphine”.
